The text below walks through data of patent publication US9708639B2, “Method for quantifying amino acids with pyrophosphate” (TOYAMA PREFECTURE, priority 2012, dated 2017).

One experiment concerns the target T1, Thermus-derived MetRS (Thermus thermophilus, UniProt P23395).
T1 construct: host or cells: Escherichia coli BL21 (DE3)
In words: Qualitative test of AARS substrate specificity (AARS activity at 70° C.). Also noted: key: +: Activity was detected; −: Activity was not detected. Particulars: amino acids 200 μM, hydroxylamine 400 mM. The format is biochemical, Thermus thermophilus HB8 strain. Here is the method: (§1) A test sample containing an amino acid as the measurement subject and a reaction mixture for quantifying amino acid having the following composition were mixed. The mixture was left standing at 70° C. to allow the AARS reaction to advance. The mixture in a volume of 600 μl, 60 μl of a 1 M 2-mercaptoethanol solution, and 240 μl of the color development solution mentioned below were mixed, then the mixture was left standing at room temperature for 20 minutes, and the absorbance was measured at 580 nm in a cuvette having an optical path length of 1 cm.
(§2) Reaction mixture for quantifying amino acid: 20 mM HEPES-NaOH (pH 8.0), 5 mM MgCl2, 0.5 mM ATP, and AARS (concentrations are final concentrations obtained after mixing with test sample)
(§3) Color developing solution: A solution obtained by mixing water and concentrated sulfuric acid at a ratio of 6:1 and dissolving (NH4)6Mo7O24.4H2O in the mixture at a concentration of 0.025 g/ml
(§4) Presence or absence of pyrophosphate generation was verified for the Thermotoga-derived CysRS, HisRS, LysRS, ProRS, SerRS, TrpRS, and TyrRS by using the AARS activity measurement method described in 9. and standard solutions of the various amino acids as test samples. AARSs were added to the reaction mixture at final concentrations of 0.3 (8 mU/ml), 0.1, 0.2 (3 mU/ml), 0.2, 0.1 (1 mU/ml), 0.1, 0.2 (20 mU/ml) mg/ml, respectively. The reaction mixtures were prepared so that the final concentration of Tyr was 1 mM, and the final concentrations of the other amino acids were 5 mM. As for the hydroxylamine concentration, it was added at a final concentration of 1000 mM for all the cases. Further, presence or absence of pyrophosphate production was also verified for the Thermus-derived MetRS and TyrRS by using the AARS activity measurement method described in 10. and standard solutions of the various amino acids as test samples. The reaction mixtures were prepared so that the final concentrations of the amino acids were 200 μM. Hydroxylamine was added at a final concentration of 400 mM.
(§5) Detection or no detection of the activity in the reaction mixtures containing a combination of each AARS and amino acid are shown in Table 2. The symbol + indicates detection of the activity, and − indicates no detection of the activity.

A further experiment addresses T2, Thermus-derived TyrRS (Thermus thermophilus, UniProt P83453).
T2 construct: host or cells: Escherichia coli BL21 (DE3)
The experiment is described as above. Particulars: amino acids 200 μM, hydroxylamine 400 mM. Also noted: key: +: Activity was detected; −: Activity was not detected. Type of experiment: biochemical, Thermus thermophilus HB8 strain. The protocol: as §1, §2, §3, §4, §5

A further experiment deals with T3, Thermotoga-derived TyrRS (Thermotoga maritima, UniProt Q9WYU8).
T3 construct: The amplification products were each inserted into pET-28a to obtain plasmids for expression of respective AARSs; His tag (N); made in house; host or cells: Escherichia coli BL21 (DE3)
T3 sequence (Q9WYU8 1-401): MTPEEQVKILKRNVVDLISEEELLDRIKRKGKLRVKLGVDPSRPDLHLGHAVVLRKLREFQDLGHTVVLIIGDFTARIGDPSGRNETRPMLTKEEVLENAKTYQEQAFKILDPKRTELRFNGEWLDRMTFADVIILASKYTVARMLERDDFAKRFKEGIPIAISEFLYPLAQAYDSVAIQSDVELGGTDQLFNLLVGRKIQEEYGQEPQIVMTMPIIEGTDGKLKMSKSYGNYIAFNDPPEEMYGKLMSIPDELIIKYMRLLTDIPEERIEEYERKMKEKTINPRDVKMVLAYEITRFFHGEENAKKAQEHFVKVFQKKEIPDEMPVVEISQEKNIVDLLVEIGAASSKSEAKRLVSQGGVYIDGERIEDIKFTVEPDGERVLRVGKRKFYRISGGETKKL
Put plainly: Calibration curve for amino acid by coupled PPDK and LDH. Particulars: Tyr 0 to 200 μM; hydroxylamine 200 mM; TyrRS 0.4 mg/ml (40 mU/ml); 30° C. Type of experiment: biochemical, Thermotoga maritima MSB8 strain. The protocol:
(§6) A test sample containing an amino acid as the measurement subject and a reaction mixture for quantifying amino acid having the following composition were mixed. The mixture was left standing at 30° C. to allow the AARS, PPDK, and LDH reactions to advance, and decrease of the absorbance at 340 nm was measured. The volume of the mixture was 200 μl, and after the reaction mixture was put into the wells of a 96-well microplate, the absorbance was measured with a microplate reader.
(§7) Reaction mixture for quantifying amino acid: 20 mM Tris-HCl (pH 7.0), 10 mM MgCl2, 10 mM NH4Cl, 0.3 mM PEP, 0.3 mM NADH, 0.2 mM ATP, 0.2 mM AMP, 70 mU/ml PPDK, 50 U/ml LDH, and AARS (concentrations are final concentrations obtained after mixing with test sample)
(§8) Calibration curves were prepared by using the AARS activity measurement method described in 8. and standard Cys, Lys, Ser, and Tyr solutions as test samples. The concentrations of the aforementioned amino acids were set so that the final concentrations thereof are in the range of 0 to 200 μM. The hydroxylamine concentration was 200 mM for the samples used for the Tyr calibration curve, or 1000 mM for the samples used for the Cys, Lys, and Ser calibration curves. The Thermotoga-derived CysRS, LysRS, SerRS, TyrRS, and the Thermus-derived TyrRS were added to the reaction mixture at final concentrations of 0.2 (7 mU/ml), 0.1 (10 mU/ml), 0.2 (8 mU/ml), 0.4 (40 mU/ml), and 0.1 mg/ml, respectively.
(§9) Calibration curves could be similarly prepared when adding pyrophosphate instead of the aforementioned amino acids, but the inclinations of the Lys, Ser, and Tyr calibration curves (absorbance change per mM of substrate) were 80% or more of the inclination of the pyrophosphate calibration curve. […] The inclination of the Cys calibration curve was slightly smaller than those of the other calibration curves, and it is considered that this is because a part of cysteine in the test sample was converted into cystine by air oxidation, and the real concentration of cysteine was reduced.

The target of the next experiment is T4, Thermotoga-derived SerRS (Thermotoga maritima, UniProt Q9X199).
T4 construct: His tag (C); made in house; host or cells: Escherichia coli BL21 (DE3)
The experiment is described as above. The format is biochemical, Thermotoga maritima MSB8 strain. Particulars: Ser 0 to 200 μM; hydroxylamine 1000 mM; SerRS 0.2 mg/ml (8 mU/ml); 30° C. Here is the method: as §6, §7, §8, §9

Each structure is given as a SMILES string.

T2 sequence (P83453 whole entry): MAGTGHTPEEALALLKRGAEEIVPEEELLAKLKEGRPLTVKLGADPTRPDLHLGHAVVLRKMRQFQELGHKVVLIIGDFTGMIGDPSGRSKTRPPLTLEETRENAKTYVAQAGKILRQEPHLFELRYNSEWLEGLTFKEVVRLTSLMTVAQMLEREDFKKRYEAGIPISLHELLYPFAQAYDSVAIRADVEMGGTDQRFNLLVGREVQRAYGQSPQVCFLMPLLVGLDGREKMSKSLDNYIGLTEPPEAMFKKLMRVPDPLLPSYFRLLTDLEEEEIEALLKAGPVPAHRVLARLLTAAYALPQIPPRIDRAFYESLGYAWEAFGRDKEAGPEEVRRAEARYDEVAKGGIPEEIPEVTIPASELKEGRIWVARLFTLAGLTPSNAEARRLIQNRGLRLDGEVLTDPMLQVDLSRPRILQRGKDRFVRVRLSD
T1 sequence (P23395 whole entry): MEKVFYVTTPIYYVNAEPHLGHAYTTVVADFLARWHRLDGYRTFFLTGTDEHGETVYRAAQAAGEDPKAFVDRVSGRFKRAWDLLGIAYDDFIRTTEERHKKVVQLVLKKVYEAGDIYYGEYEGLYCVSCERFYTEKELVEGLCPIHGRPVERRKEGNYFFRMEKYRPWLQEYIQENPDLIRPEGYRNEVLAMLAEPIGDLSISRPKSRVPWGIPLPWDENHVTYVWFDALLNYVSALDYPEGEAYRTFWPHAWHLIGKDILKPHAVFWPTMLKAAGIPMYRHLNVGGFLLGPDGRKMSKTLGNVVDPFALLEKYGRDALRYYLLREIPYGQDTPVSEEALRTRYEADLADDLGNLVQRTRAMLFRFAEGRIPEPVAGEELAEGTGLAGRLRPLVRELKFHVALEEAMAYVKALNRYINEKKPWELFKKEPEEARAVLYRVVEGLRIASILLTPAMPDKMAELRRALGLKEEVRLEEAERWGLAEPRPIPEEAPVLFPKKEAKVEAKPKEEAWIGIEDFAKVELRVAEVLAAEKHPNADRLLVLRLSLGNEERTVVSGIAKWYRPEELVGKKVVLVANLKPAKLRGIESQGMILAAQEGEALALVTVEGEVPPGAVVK
T4 sequence (Q9X199 whole entry): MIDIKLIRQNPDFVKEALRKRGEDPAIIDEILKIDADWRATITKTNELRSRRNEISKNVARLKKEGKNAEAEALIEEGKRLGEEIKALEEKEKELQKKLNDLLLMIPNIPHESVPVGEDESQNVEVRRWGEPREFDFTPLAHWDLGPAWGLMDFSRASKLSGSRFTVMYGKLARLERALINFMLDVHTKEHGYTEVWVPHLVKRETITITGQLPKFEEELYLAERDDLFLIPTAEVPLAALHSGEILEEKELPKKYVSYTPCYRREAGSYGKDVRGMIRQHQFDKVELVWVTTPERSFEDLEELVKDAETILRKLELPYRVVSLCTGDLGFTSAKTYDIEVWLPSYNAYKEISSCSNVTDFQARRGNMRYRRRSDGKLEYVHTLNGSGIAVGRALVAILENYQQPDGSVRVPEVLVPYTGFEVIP

With `N[C@@H](Cc1c[nH]cn1)C(=O)O` [His, L-histidine], the “Detection of the activity (pyrophosphate production), MetRS (Thermus)” value (“Detection of the activity … MetRS (Thermus)” for short) at Thermus-derived MetRS is on record as “−”. Further, on Thermus-derived TyrRS, the “Detection of the activity (pyrophosphate production), TyrRS (Thermus)” value (“Detection of the activity … TyrRS (Thermus)” for short) is listed as “−”.
For the compound `NC(=O)C[C@H](N)C(=O)O` [Asn, L-asparagine], the “Detection of the activity … MetRS (Thermus)” value on Thermus-derived MetRS is reported as “−”. At Thermus-derived TyrRS, the “Detection of the activity … TyrRS (Thermus)” value is given as “−”.
Consider `N=C(N)NCCC[C@H](N)C(=O)O` [Arg, L-arginine], for which the “Detection of the activity … MetRS (Thermus)” value on Thermus-derived MetRS is “−”. In addition, the “Detection of the activity … TyrRS (Thermus)” value at Thermus-derived TyrRS is reported as “−”.
In the case of `NC(=O)CC[C@H](N)C(=O)O` [Gln, L-glutamine], the “Detection of the activity … MetRS (Thermus)” value on Thermus-derived MetRS is “−”. In addition, the “Detection of the activity … TyrRS (Thermus)” value on Thermus-derived TyrRS is “−”.
As to `C[C@H](N)C(=O)O` [Ala, L-alanine], at Thermus-derived MetRS, the “Detection of the activity … MetRS (Thermus)” value is listed as “−”. Also, the “Detection of the activity … TyrRS (Thermus)” value at Thermus-derived TyrRS is listed as “−”.
For the compound `C[C@@H](O)[C@H](N)C(=O)O` [Thr, L-threonine], on Thermus-derived MetRS, the “Detection of the activity … MetRS (Thermus)” value is “−”. On Thermus-derived TyrRS, the “Detection of the activity … TyrRS (Thermus)” value is recorded as “−”.
Regarding `NCCCC[C@H](N)C(=O)O` [Lys, L-lysine], at Thermus-derived MetRS, the “Detection of the activity … MetRS (Thermus)” value was “−”. In addition, the “Detection of the activity … TyrRS (Thermus)” value at Thermus-derived TyrRS is “−”.
As to `N[C@@H](Cc1ccccc1)C(=O)O` [Phe, L-phenylalanine], at Thermus-derived MetRS, the “Detection of the activity … MetRS (Thermus)” value was “−”. At Thermus-derived TyrRS, the “Detection of the activity … TyrRS (Thermus)” value was “−”.
Consider `CC(C)C[C@H](N)C(=O)O` [Leu, L-leucine], for which, at Thermus-derived MetRS, the “Detection of the activity … MetRS (Thermus)” value was “−”. Further, the “Detection of the activity … TyrRS (Thermus)” value on Thermus-derived TyrRS is given as “−”.
On to `N[C@@H](Cc1ccc(O)cc1)C(=O)O` [Tyr, L-tyrosine], for which the “Detection of the activity … MetRS (Thermus)” value on Thermus-derived MetRS is recorded as “−”. The “Detection of the activity … TyrRS (Thermus)” value on Thermus-derived TyrRS was “+”. Moreover, the “inclination of calibration curve relative to inclination of the pyrophosphate calibration curve” value on Thermotoga-derived TyrRS is reported as at least 80%.
On to `CSCC[C@H](N)C(=O)O` [Met, L-methionine], for which the “Detection of the activity … MetRS (Thermus)” value on Thermus-derived MetRS was “+”. In addition, the “Detection of the activity … TyrRS (Thermus)” value on Thermus-derived TyrRS is listed as “−”.
For the compound `N[C@@H](CO)C(=O)O` [Ser, L-serine], the “Detection of the activity … MetRS (Thermus)” value at Thermus-derived MetRS was “−”. The “Detection of the activity … TyrRS (Thermus)” value on Thermus-derived TyrRS was “−”. The “inclination of calibration curve relative to inclination of the pyrophosphate calibration curve” value at Thermotoga-derived SerRS is at least 80%.
As to `N[C@@H](CCC(=O)O)C(=O)O` [Glu, L-glutamic acid], on Thermus-derived MetRS, the “Detection of the activity … MetRS (Thermus)” value was “−”. In addition, the “Detection of the activity … TyrRS (Thermus)” value on Thermus-derived TyrRS is recorded as “−”.
In the case of `O=C(O)[C@@H]1CCCN1` [Pro, L-proline], the “Detection of the activity … MetRS (Thermus)” value on Thermus-derived MetRS was “−”. Further, the “Detection of the activity … TyrRS (Thermus)” value on Thermus-derived TyrRS is “−”.
As for `CC[C@H](C)[C@H](N)C(=O)O` [Ile, L-isoleucine], the “Detection of the activity … MetRS (Thermus)” value on Thermus-derived MetRS was “−”. Also, the “Detection of the activity … TyrRS (Thermus)” value on Thermus-derived TyrRS was “−”.
For the compound `N[C@@H](Cc1c[nH]c2ccccc12)C(=O)O` [Trp, L-tryptophan], the “Detection of the activity … MetRS (Thermus)” value on Thermus-derived MetRS is on record as “−”. In addition, at Thermus-derived TyrRS, the “Detection of the activity … TyrRS (Thermus)” value is on record as “−”.
Turning to `NCC(=O)O` [Gly, glycine], the “Detection of the activity … MetRS (Thermus)” value at Thermus-derived MetRS was “−”. At Thermus-derived TyrRS, the “Detection of the activity … TyrRS (Thermus)” value was “−”.
As for `CC(C)[C@H](N)C(=O)O` [Val, L-valine], the “Detection of the activity … MetRS (Thermus)” value at Thermus-derived MetRS is on record as “−”. Moreover, on Thermus-derived TyrRS, the “Detection of the activity … TyrRS (Thermus)” value is “−”.
`N[C@@H](CS)C(=O)O` [Cys, L-cysteine]: at Thermus-derived MetRS, the “Detection of the activity … MetRS (Thermus)” value is “−”. The “Detection of the activity … TyrRS (Thermus)” value on Thermus-derived TyrRS was “−”.
As for `N[C@@H](CC(=O)O)C(=O)O` [Asp, L-aspartic acid], the “Detection of the activity … MetRS (Thermus)” value at Thermus-derived MetRS is “−”. At Thermus-derived TyrRS, the “Detection of the activity … TyrRS (Thermus)” value is on record as “−”.
